One molecule from patent US20050175550A1, “Compositions for oral use” (priority 2000, published 2005) can be followed below.

In brackets after ≈: the same amount, converted by molar mass. Some results are limits rather than exact numbers.

Common to all, as to assay: MIC by agar plate dilution method on standard strains (Example 3)
Common to all, as to assay type: cell-based

Experiment [1] has as its system Streptococcus agalactiae ATCC13813. As for the experimental part: (§1) Drug solutions at a concentration 10 times as high as the maximum applicable concentration were prepared as original solutions of test drugs given in Table 2 (as to solvents used for this purpose, reference should be made also to Table 2). Serial two-fold dilution series of the original solutions were prepared at desired stages, and 1 ml each of the diluted drug solutions was added to 9 ml of media given in Table 3 to prepare drug plates. […] • 1) Bacterial solutions stocked at −80° C. were inoculated on agar media (as to media used, reference should be made to Table 3), and then incubated at 37° C. overnight. When desired, subculturing was conducted once more on the same agar media (by overnight incubation at 37° C.). • 2) Colonies growing on the agar media were sampled by a platinum loop, suspended in liquid media (reference should be made to Table 3) and statically incubated at 37° C. for 18 hours (preculturing). • 3) Preculturing was continued up to McFarland 0.5 (McFarland 0.5=about 10^8 CFU/ml), and then the culture broths were diluted with Muellar Hinton Broth to make 10^6 CFU/ml. 5 μl each of the diluted solutions were inoculated on the above-mentioned drug plates by an inoculator Microplanter. […] Thus, bacterial solutions at about 10^8 CFU/ml can be easily prepared by use of McFarland 0.5. Bacterial solutions at such a turbidity are commercially available, but can be easily prepared.

Experiment [2] relates to Moraxella (Branhamella) catarrhalis ATCC25238. As for the experimental part: as §1
The subject of experiment [3] is Streptococcus pyogenes ATCC12344. The method, then:
as §1

In experiment [4] the test system is Streptococcus pneumoniae ATCC6302. The method, then:
as §1

By MIC is commonly meant the lowest concentration that inhibits growth of the organism. A higher MIC goes with weaker potency. On to `N[C@@H](CCSC(F)(F)F)C(=O)O` [TFM, Trifluoromethionine], for which the MIC is above 400 mg/L in experiment [1], 100 mg/L (≈ 492 µM) in experiment [2], above 400 mg/L in experiment [3] and above 400 mg/L in experiment [4].
